Reference: ChEMBL document CHEMBL1201862, “PubChem BioAssay data set” (2004)
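Cultured in 96-well plates, cells were exposed to test compound for 48 hours across five concentrations. GI50 is the concentration that inhibits growth by half.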 Activity calls are given as the source filed them. No stated cut-off is given here; in the data, active = GI50 up to about 1.1 µM and inactive = higher.

How the values were obtained:
Assay in all cases: inhibition of tumour cell growth, NCI panel, 48 h
786-0 = tested on: 786-0
A549 = tested on: A549
BT-549 = tested on: BT-549
CAKI-1 = tested on: CAKI-1
CCRF-CEM = tested on: CCRF-CEM
HOP-92 = tested on: HOP-92
Hs-578T = tested on: Hs-578T
IGROV-1 = tested on: IGROV-1
NCI-H23 = tested on: NCI-H23
NCI/ADR-RES = tested on: NCI/ADR-RES
OVCAR-4 = tested on: OVCAR-4
RPMI-8226 = tested on: RPMI-8226
SF-268 = tested on: SF-268
SNB-75 = tested on: SNB-75
SR = tested on: SR
UACC-62 = tested on: UACC-62
UO-31 = tested on: UO-31
KM12 = tested on: KM12
NCI-H226 = tested on: NCI-H226
UACC-257 = tested on: UACC-257

Measured: GI50

Cc1cnoc1NS(=O)(=O)c1ccc(Nc2nnc(/C=C/c3c(O)ccc4ccccc34)c(=O)n2N)cc1
inactive: 786-0 35.1 µM | A549 35.1 µM | BT-549 18.7 µM | CAKI-1 27.5 µM | CCRF-CEM 10.9 µM | HOP-92 41.3 µM | Hs-578T 29.2 µM | IGROV-1 12.8 µM | NCI-H23 7.73 µM | NCI/ADR-RES 11.5 µM | OVCAR-4 27.9 µM | RPMI-8226 20.2 µM | SF-268 11.3 µM | SNB-75 20.8 µM | SR 21.8 µM | UACC-62 24.5 µM | UO-31 28.7 µM

Cc1cc(C)c2c(=O)n(CC(O)CN3CCN(CCOCCO)CC3)sc2n1 (stereo not given)
inactive: 786-0 16.9 µM | A549 32.4 µM | BT-549 16.6 µM | CAKI-1 > 100 µM | CCRF-CEM 11.4 µM | HOP-92 19.4 µM | Hs-578T 28.5 µM | IGROV-1 43.9 µM | KM12 22 µM | NCI-H226 > 100 µM | NCI-H23 15.3 µM | NCI/ADR-RES > 100 µM | OVCAR-4 17.9 µM | SF-268 20.8 µM | SNB-75 1.65 µM | SR 25.8 µM | UACC-257 12.2 µM | UACC-62 18.7 µM | UO-31 20.7 µM

Cc1ccc(S(=O)(=O)OC2CCN(C)CC2)cc1
inactive: 786-0 > 100 µM | A549 57.8 µM | BT-549 > 100 µM | HOP-92 19.8 µM | Hs-578T > 100 µM | IGROV-1 > 100 µM | NCI-H23 33.7 µM | NCI/ADR-RES > 100 µM | OVCAR-4 > 100 µM | RPMI-8226 23.2 µM | SF-268 > 100 µM | SNB-75 42.4 µM | SR 20.5 µM | UACC-257 24.2 µM | UACC-62 > 100 µM

CC1(F)C=CC(=O)C=C1
inactive: 786-0 17 µM | A549 > 100 µM | BT-549 > 100 µM | CAKI-1 55.7 µM | CCRF-CEM 47.5 µM | HOP-92 30.5 µM | Hs-578T > 100 µM | KM12 > 100 µM | NCI-H226 86.9 µM | NCI-H23 > 100 µM | NCI/ADR-RES 17.6 µM | OVCAR-4 79.3 µM | RPMI-8226 29.4 µM | SF-268 > 100 µM | SNB-75 > 100 µM | SR 32.6 µM | UACC-257 71.8 µM | UACC-62 44.9 µM | UO-31 23.6 µM

O=C(O)CCc1c2ccc(=O)c(O)c-2oc2c(O)c(O)ccc12
inactive: 786-0 19.4 µM | A549 > 100 µM | BT-549 87.5 µM | CAKI-1 > 100 µM | CCRF-CEM 2.29 µM | HOP-92 > 100 µM | Hs-578T 14.2 µM | IGROV-1 > 100 µM | KM12 29.3 µM | NCI-H23 61.4 µM | NCI/ADR-RES > 100 µM | OVCAR-4 46.2 µM | RPMI-8226 32 µM | SF-268 32.4 µM | SNB-75 24.9 µM | SR 37.2 µM | UACC-257 > 100 µM | UACC-62 > 100 µM | UO-31 > 100 µM

COC(=O)C(Cc1ccccc1)NC(=O)CSc1nnc(COc2ccc(Cl)cc2)n1-c1ccccc1 (stereo not given)
inactive: 786-0 16.3 µM | A549 39.4 µM | BT-549 27.4 µM | CCRF-CEM 16.8 µM | HOP-92 26.4 µM | Hs-578T 26.7 µM | IGROV-1 27.5 µM | KM12 37.7 µM | NCI-H226 40.6 µM | NCI-H23 22.3 µM | NCI/ADR-RES 21.8 µM | OVCAR-4 21.4 µM | RPMI-8226 20.5 µM | SF-268 25.7 µM | SNB-75 23.8 µM | SR 5.41 µM | UACC-257 13.1 µM | UACC-62 14.6 µM | UO-31 1.83 µM

O=c1[nH]c(-n2[nH]c3c(c2=O)CCCC3)nc(O)c1-c1ccccc1
inactive: 786-0 > 100 µM | BT-549 > 100 µM | CAKI-1 > 100 µM | CCRF-CEM > 100 µM | HOP-92 > 100 µM | Hs-578T > 100 µM | IGROV-1 > 100 µM | KM12 > 100 µM | NCI-H226 > 100 µM | NCI-H23 > 100 µM | NCI/ADR-RES > 100 µM | OVCAR-4 > 100 µM | RPMI-8226 > 100 µM | SF-268 > 100 µM | SR > 100 µM | UACC-257 > 100 µM | UACC-62 > 100 µM | UO-31 > 100 µM

COc1ccc2nc(-c3ccc(N)cc3)sc2c1
inactive: 786-0 43.9 µM | A549 68.1 µM | BT-549 > 100 µM | CAKI-1 > 100 µM | CCRF-CEM 4.89 µM | HOP-92 > 100 µM | Hs-578T 34.6 µM | IGROV-1 70.5 µM | KM12 22.3 µM | NCI-H226 34.2 µM | NCI-H23 > 100 µM | NCI/ADR-RES > 100 µM | OVCAR-4 > 100 µM | SF-268 63.2 µM | SNB-75 44.8 µM | SR 32.4 µM | UACC-257 > 100 µM | UACC-62 > 100 µM | UO-31 29.4 µM
